Data from patent US11607461B2, “Compositions and methods for genetically modifying myosin phosphatase target subunit (Mypt1) gene for lowering blood pressure” (University of Maryland, Baltimore, priority 2016, dated 2023).
One block for each molecule: values may come before it.

What was measured:
[1] = system: First-order mesenteric arteries (MA1); assay: Wire myography: relaxation to 8-Br-cGMP of α-toxin permeabilized, calcium-clamped arteries; set-up: species or system mouse; settings: for EC50: α-toxin permeabilized, pCa6
From the text: (§1) First-order mesenteric arteries (2 mm length; 200-250 μm ID) were dissected free of connective tissue in a HEPES-bicarbonate physiological saline solution containing the following concentrations (in mM): 112 NaCl, 25.7 NaHCO3, 4.9 KCl, 2.0 CaCl2, 1.2 MgSO4, 1.2 KH2PO4, 11.5 glucose, and 10 HEPES. The solution was at pH 7.4 and maintained at 37 C for experiments. Arteries were mounted on a 4-chamber wire myograph (Model 610M, Danish Myo Technology, Aarhus, Denmark). Force was continuously recorded and measured at steady state. Starting tension (IC90) was equally applied to all arteries as previously described (Reho et al., Am J Physiol Heart Circ Physiol 307: H563-573, 2014). Arteries were then primed with 2 separate dose of phenylephrine (10 μM) and allowed to equilibrate for 20 minutes in fresh, heated HEPES-bicarbonate buffer. Intact arteries were subjected to dose response to phenylephrine (α-adrenergic agonist; 1 nM-100 μM), U46619 (thromboxane mimetic; 1 nM-10 μM), and angiotensin II (1 nM-10 μM). Maximal response of MAs to depolarization was assessed with 100 mM KCl. A subset of arteries was permeabilized with α-toxin (1000 U/mL) and subjected to calcium clamp in high relaxing solution (pCa9) containing the following (in mM): 60 KMS, 5 EGTA, 0.02 CaCl2, 9.26 MgCl2, 5.2 Na2ATP, 25 creatine phosphate, and 25 BES with pH 7.1 (intracellular pH) by 1N KOH. Permeabilized arteries were subjected to dose response of calcium. Phenylephrine-induced calcium sensitization was performed under calcium clamp at a sub-maximal concentration of calcium (pCa6; 1 μM) with intracellular calcium stores depleted by preincubation of arteries with 10 μM A-23187. Vessels were activated with 10 μM phenylephrine with or without preincubation with L-NAME (100 μM). Vasorelaxation responses to the NO donor DEA/NO were assessed in intact arteries activated with a sub-maximal concentration of phenylephrine (10 μM). Dose response to 8-Br-cGMP (1 nM-100 μM) were assessed in α-toxin permeabilized, calcium-clamped (pCa6; 1 μM) arteries. Relaxation data are presented as percent of maximal force. All chemicals were purchased from Sigma-Aldrich (St Louis, Mo.).
(§2) All data are presented as means±SEM. Data were analyzed and graphed using SigmaPlot software (SYSTAT, Chicago, Ill.). mRNA and protein data and mean arterial pressures were analyzed using a one way ANOVA. Vascular function data were analyzed via One way ANOVA and a Bonferroni post-hoc test or Two way repeated measures ANOVA and a Bonferroni post-hoc test. EC50 were calculated via standard curve analysis. Significance was accepted with a p<0.05.

[2] = system: First-order mesenteric arteries (MA1); assay: Wire myography: vasorelaxation to DEA/NO of intact arteries activated with phenylephrine; set-up: species or system mouse; settings: for EC50: pre-constriction with PE 10 μM, read-out: EC50 relaxation to DEA/NO
From the text: as §1, with “Permeabilized arteries were subjected to dose response of calcium. Phenylephrine-induced calcium sensitization was performed under calcium clamp at a sub-maximal concentration of calcium (pCa6; 1 μM) with intracellular calcium stores depleted by preincubation of arteries with 10 μM A-23187. Vessels were activated with 10 μM phenylephrine with or without preincubation with L-NAME (100 μM).” left out, “Relaxation data are presented as percent of maximal force. All chemicals were purchased from Sigma-Aldrich (St Louis, Mo.).” left out
as §2, with “Significance was accepted with a p<0.05.” left out

[3] = system: First-order mesenteric arteries (MA1); assay: Wire myography: force generation, dose response to phenylephrine in intact arteries; settings: Mus musculus, read-out: EC50 force generation to PE
From the text: as §1, §2

[4] = system: PPP1R12A (Mypt1) exon 24 flanking region; assay: Surveyor nuclease assay on genomic PCR products of transfected HEK293T cells; type: cell-based, human; settings: constructs tested individually; for Surveyor nuclease products (sizes): control ~750 bp
Procedure: HEK293T cells were seeded at a density of 1×10^5 cells/well in 24-well plates. After 24 hours, while cell confluence reached approximately 80%, cells were transfected with 1µg of sgRNA-px601 vector (experimental conditions) or px601 vector (empty vector) or pIRES-EYFP vector (positive transfection control). All transfections were performed in duplicates using Lipofectamine® 3000 Reagent (Life Technologies/ThermoFisher Scientific, Waltham, Mass.) according to the manufacturer's protocol. Twenty-four hours after transfection, a volume of 0.5 mL of culture medium was added per well (reaching a total volume of 1 mL per well). Cells were harvested 72 hours after transfection; culture medium was removed, cells were trypsinized using Gibco™ TrypLE™ Express (Life Technologies/ThermoFisher Scientific), pelleted and cell pellets were stored at −20° C. The transfection efficiency was evaluated immediately prior to harvesting of cells, by inspection of HEK293T cells transfected with pIRES-EYFP vector using a Leica MZ-FLIII fluorescence microscope equipped with a GFP filter set (Leica Microscopy Systems Ltd., Heerbrugg, Switzerland).
Genomic DNA was purified from the transfected cells using PureLink™ Genomic DNA Mini Kit (Invitrogen/ThermoFisher Scientific, Waltham, Mass.) as per the manufacturer's protocol. In order to investigate if genome editing occurred, locus PCR amplifying a 754 pb-region flanking the exon 24 of PPP1R12A gene was performed using primers MYPT12AE24F 5′-[…]-3′ (SEQ ID NO:3) (intronic region 155894 bp to 155913 bp on PPP1R12A ENSG00000058272) and MYPT12AE24R 5′-[…]-3′ (SEQ ID NO:4) (intronic region 156626 bp to 156647 bp on PPP1R12A ENSG00000058272). PCR conditions were as follows: 95° C. 5 min, then 95° C. 30 s, 53° C. 45 s, 72° C. 60 s for 30 cycles, with 5 min of final extension step at 72° C. PCR products were resolved by 2% agarose gel electrophoresis. When PCR product size was shorter than the control PCR product, genome editing occurred. For PCR products that could not be separated from the control product on 2% agarose gel due to the low resolution of the gel, a surveyor nuclease assay was performed using the Surveyor® Mutation Detection Kit (Integrated DNA Technologies, Coralville, Iowa) as per manufacturer's protocol for better visualization of the edits. The Surveyor® Mutation Detection Kit uses an endonuclease that cleaves DNA with high specificity at sites of mismatches and other distortions, allowing the detection of known and unknown DNA mutations. Briefly, target DNA is amplified by PCR from both wild-type (WT) and mutated DNA, WT and mutant DNA are then hybridized to form heteroduplexes, which are subsequently cleaved by the surveyor endonuclease. When no mutation is present, only homoduplexes are formed and no endonuclease-mediated cleavage is observed.

[5] = E24 cKO MA1s, highest concentration

Molecule: Nc1nc2c(nc(Br)n2[C@@H]2O[C@@H]3COP(=O)(O)O[C@H]3[C@H]2O)c(=O)[nH]1 [8-Br-cGMP, 8-bromo-cGMP]
EC50 ([1]; CON mice): 95.2 ± 11 nM
EC50 ([1]; E24 F/+): 3 ± 2.5 nM
EC50 ([1]; E24 F/F): 6 ± 1.5 nM
maximal response to 8-Br-cGMP [1, 5]: complete relaxation

EC50 ([2]; E24 F/+ (cKO heterozygotes)): 3.3 ± 0.5 nM
EC50 ([2]; E24 F/F (cKO homozygotes)): 2.1 ± 0.5 nM
Molecule: CCN(CC)/[N+]([O-])=N/[O-].[Na+] [DEA/NO]
maximal response to DEA/NO [2, 5]: complete relaxation

EC50 ([3]; 336 h, CON+HS (high salt 4% NaCl, 2 weeks)): 1000 ± 500 nM
EC50 ([3]; CON mice): 500 ± 100 nM
EC50 ([3]; E24 F/+): 600 ± 200 nM
EC50 ([3]; E24 F/F+HS): 3000 ± 1000 nM
EC50 ([3]; E24 F/F+NS): 400 ± 200 nM
EC50 ([3]; E24 F/F): 900 ± 200 nM
Molecule: CNC[C@H](O)c1cccc(O)c1 [PE, phenylephrine]
EC50 ([3]; CON+NS (normal salt diet)): 900 ± 400 nM

B1: sgRNA12: guide RNA, target … (SEQ ID NO: 16); tested cloned in px601 SaCas9 plasmid (nucleic acid)
guide: GAUACAAAGCUAUAAAGUCAGGUUUUAGUACUCUGGAAACAGAAUCUACUAAAACAAGGCAAAAUGCCGUGUUUAUCUCGUCAACUUGUUGGCGAGAUUUUU
genome editing in vitro (in words) [4]: effective genome editing
Surveyor nuclease products (sizes) [4]: 270/480

B2: sgRNA5: guide RNA, target … (SEQ ID NO: 9); tested cloned in px601 SaCas9 plasmid (nucleic acid)
guide: GCAUUAUUUAUUAAUCUGGGAGUUUUAGUACUCUGGAAACAGAAUCUACUAAAACAAGGCAAAAUGCCGUGUUUAUCUCGUCAACUUGUUGGCGAGAUUUUU
genome editing in vitro (in words) [4]: effective genome editing
Surveyor nuclease products (sizes) [4]: 120/630

B3: sgRNA11: guide RNA, target … (SEQ ID NO: 15); tested cloned in px601 SaCas9 plasmid (nucleic acid)
guide: GUUAUGUGUAGCAUUAAUGCAGUUUUAGUACUCUGGAAACAGAAUCUACUAAAACAAGGCAAAAUGCCGUGUUUAUCUCGUCAACUUGUUGGCGAGAUUUUU
genome editing in vitro (in words) [4]: effective genome editing
Surveyor nuclease products (sizes) [4]: 320/430

B4: sgRNA9: guide RNA, target … (SEQ ID NO: 13); tested cloned in px601 SaCas9 plasmid (nucleic acid)
guide: GAGAAUGCUUAUCAUUUAAGGGUUUUAGUACUCUGGAAACAGAAUCUACUAAAACAAGGCAAAAUGCCGUGUUUAUCUCGUCAACUUGUUGGCGAGAUUUUU
genome editing in vitro (in words) [4]: effective genome editing
Surveyor nuclease products (sizes) [4]: 330/420

B5: sgRNA6: guide RNA, target … (SEQ ID NO: 10); tested cloned in px601 SaCas9 plasmid (nucleic acid)
guide: GUAUCUGAAAGGUGACCGGCGUUUUAGUACUCUGGAAACAGAAUCUACUAAAACAAGGCAAAAUGCCGUGUUUAUCUCGUCAACUUGUUGGCGAGAUUUUU
genome editing in vitro (in words) [4]: effective genome editing
Surveyor nuclease products (sizes) [4]: 250/500
